Data taken from patent US8637484B2, “Modulation of growth hormone receptor expression and insulin-like growth factor expression” (Antisense Therapeutic Limited, priority 2003, dated 2014).
In the oligonucleotide strings, read from the 5' end, every base follows the letter of its sugar. An asterisk marks phosphorothioate; unmarked linkages are phosphodiester. Other units and linkages are bracketed, terminal groups are in braces. A string of capitals states the bases alone. e = 2'-O-(2-methoxyethyl) (MOE); [5mC] = 5-methylcytosine; d = 2'-deoxy (DNA)

What was measured:
[1] = tested on: mouse growth hormone receptor mRNA; test: Inhibition of mouse growth hormone receptor mRNA levels in b.END cells, quantitative real-time PCR; type: cell-based; set-up: % INHIB: concentration or dose not given beside the values; conditions: mouse growth hormone receptor mRNA, b.END cells, averages from three experiments
Protocol: The mouse brain endothelial cell line b.END was obtained from Dr. Werner Risau at the Max Plank Instititute (Bad Nauheim, Germany). b.END cells were routinely cultured in DMEM, high glucose (Gibco/Life Technologies, Gaithersburg, Md.) supplemented with 10% fetal calf serum (Gibco/Life Technologies, Gaithersburg, Md.). Cells were routinely passaged by trypsinization and dilution when they reached 90% confluence. Cells were seeded into 96-well plates (Falcon-Primaria #3872) at a density of 3000 cells/well for use in RT-PCR analysis.
When cells reached 65-75% confluency, they were treated with oligonucleotide. For cells grown in 96-well plates, wells were washed once with 100 μL OPTI-MEM™-1 reduced-serum medium (Invitrogen Corporation, Carlsbad, Calif.) and then treated with 130 μL of OPTI-MEM™-1 containing 3.75 μg/mL LIPOFECTIN™ (Invitrogen Corporation, Carlsbad, Calif.) and the desired concentration of oligonucleotide. Cells are treated and data are obtained in triplicate. After 4-7 hours of treatment at 37° C., the medium was replaced with fresh medium. Cells were harvested 16-24 hours after oligonucleotide treatment.
Total RNA was isolated using an RNEASY 96™ kit and buffers purchased from Qiagen Inc. (Valencia, Calif.) following the manufacturer's recommended procedures. Briefly, for cells grown on 96-well plates, growth medium was removed from the cells and each well was washed with 200 μL cold PBS. 150 μL Buffer RLT was added to each well and the plate vigorously agitated for 20 seconds. 150 μL of 70% ethanol was then added to each well and the contents mixed by pipetting three times up and down. The samples were then transferred to the RNEASY 96™ well plate attached to a QIAVAC™ manifold fitted with a waste collection tray and attached to a vacuum source. Vacuum was applied for 1 minute. 500 μL of Buffer RW1 was added to each well of the RNEASY 96™ plate and incubated for 15 minutes and the vacuum was again applied for 1 minute. An additional 500 μL of Buffer RW1 was added to each well of the RNEASY 96™ plate and the vacuum was applied for 2 minutes. 1 mL of Buffer RPE was then added to each well of the RNEASY 96™ plate and the vacuum applied for a period of 90 seconds. The Buffer RPE wash was then repeated and the vacuum was applied for an additional 3 minutes. The plate was then removed from the QIAVAC™ manifold and blotted dry on paper towels. The plate was then re-attached to the QIAVAC™ manifold fitted with a collection tube rack containing 1.2 mL collection tubes. RNA was then eluted by pipetting 140 μL of RNAse free water into each well, incubating 1 minute, and then applying the vacuum for 3 minutes.
Quantitation of growth hormone receptor mRNA levels was accomplished by real-time quantitative PCR using the ABI PRISM™ 7600, 7700, or 7900 Sequence Detection System (PE-Applied Biosystems, Foster City, Calif.) according to manufacturer's instructions. This is a closed-tube, non-gel-based, fluorescence detection system which allows high-throughput quantitation of polymerase chain reaction (PCR) products in real-time. As opposed to standard PCR in which amplification products are quantitated after the PCR is completed, products in real-time quantitative PCR are quantitated as they accumulate. This is accomplished by including in the PCR reaction an oligonucleotide probe that anneals specifically between the forward and reverse PCR primers, and contains two fluorescent dyes. A reporter dye (e.g., FAM or JOE, obtained from either PE-Applied Biosystems, Foster City, Calif., Operon Technologies Inc., Alameda, Calif. or Integrated DNA Technologies Inc., Coralville, Iowa) is attached to the 5′ end of the probe and a quencher dye (e.g., TAMRA, obtained from either PE-Applied Biosystems, Foster City, Calif., Operon Technologies Inc., Alameda, Calif. or Integrated DNA Technologies Inc., Coralville, Iowa) is attached to the 3′ end of the probe. […]

serum IGF-I [2] = test: Serum IGF-I, additional 1 week study in mice; type: in vivo, mouse; conditions: 50 mg/kg once every 2 days, day 7
Protocol: (§1) Male Balb/C(a) mice were prepared and grouped for analysis as in Example 18 above.
Animals (n=10/group) were designated to the following treatment groups:
(§2) Animals were treated and serum IGF-I levels were measured as in Example 18 above. Briefly, for the one-week study, mice were given a subcutaneous dose of saline every second day, and mismatch control or antisense with administration on days 0, 2, 4, 6. On day 7, the animals were anaesthetized with pentobarbital and non-fasting blood samples collected exactly 5 minutes later from the retrobulbar plexus through heparinized capillary tubes under light ether anesthesia. Serum IGF-I measurement was done by radioimmunoassay at day 7.

[3] = tested on: growth hormone receptor mRNA; test: Growth hormone receptor mRNA levels in liver, additional 1 week study; type: in vivo, mouse; conditions: 50 mg/kg, one-week study
Protocol: as §1, §2
Growth hormone receptor mRNA levels in liver tissue samples from treated and untreated mice in this one-week study were assayed. The growth hormone receptor antisense inhibitor ISIS 227446 reduced growth hormone receptor mRNA levels in liver after the one-week study by 72% at the 50 mg/kg dose, relative to saline control (p<0.0001). The 30 mg/kg dose of ISIS 227446 yielded a 50% decrease in growth hormone receptor mRNA (p<0.0001). The unrelated control oligonucleotide ISIS 260120, at 50 mg/kg, reduced growth hormone receptor mRNA levels by approximately 15% (p>0.05).

serum IGF-I [4] = test: Serum IGF-I, two-week mouse study; type: in vivo; conditions: 30 mg/kg, 2 weeks
Protocol: A two-week study was done in similar fashion to the one-week study in Example 18, this time using ISIS 227446 at doses of 3, 5, 10, 20 and 30 mg/kg. The mismatch control was given at the same doses. Mice were treated with antisense compound or saline every other day for 14 days.
P-values were determined by t-test.

| Substance | % INHIB [1] [%] | reduction of serum IGF-I relative to saline control (serum IGF-I [2]) [%] | reduction of growth hormone receptor mRNA levels in liver relative to saline control [3] | effect on serum IGF-I levels seen with the mismatch oligonucleotide (serum IGF-I [4]) |
| --- | --- | --- | --- | --- |
| 227519 (antisense eT*e[5mC]*eA*e[5mC]*eA*d[5mC]*d[5mC]*dT*dA*d[5mC]*d[5mC]*dT*dT*dT*dG*e[5mC]*eT*eG*e[5mC]*eT) [compound 227519] | 44 | – | – | – |
| 227520 (antisense e[5mC]*eA*eT*e[5mC]*eT*dT*dA*dA*dT*d[5mC]*d[5mC]*dT*dT*dG*dG*eA*eA*eA*e[5mC]*eA) [compound 227520] | 42 | – | – | – |
| TTACCGTATGGTTCCTCACT (chemistry not given here) [ISIS 260120, unrelated negative control oligonucleotide, reference compound] | – | 17 | approximately 15% | not observed |
